Results on two molecules are retold here after patent US11312720B2, “Hydrochloride salt of 2-((3R,4S)-1-(5-(4-chloro-3,5-difluorophenyl)-7-((2-fluoro-6-methylphenyl)(methyl)amino)pyrazolo[1,5-a]pyrimidine-2-carbonyl)-3-methoxypiperidin-4-yl) acetic acid and crystals thereof” (Eisai R&D Management Co., Ltd., priority 2018, dated 2022).

A word on the solubility: it is the dissolved amount per volume that the medium holds.

A short description of data set [1]: Solubility test (24 h shaking at room temperature, HPLC). Type of data set: physicochemical. To be noted: thermodynamic from solid. Here is the method:
About 1 mg of the test compound was weighed into a test tube and 1 mL of a test solution was added. For the test solutions, a 0.1 M hydrochloric acid aqueous solution (pH 1) and Britton-Robinson buffers (pH 3, pH 5 and pH 7; ionic strength 0.3) were used. The test solution was shaken at room temperature for 24 hours and subsequently filtered through a filter. A concentration of the test compound in the filtrate was measured by high-performance liquid chromatography to evaluate solubility. […] Additionally, high-performance liquid chromatography (HPLC) conditions are shown below.
Column; YMC-Pack Pro C18, 4.6 mm×35 mm, 3 μm
Mobile phase A; water:acetonitrile:70% perchloric acid=900:100:1
Mobile phase B; water:acetonitrile:70% perchloric acid=100:900:1
Column temperature; 40° C.
Detection wavelength; 275 nm

A short description of data set [2]: Dissolution test by the paddle method in FaSSIF. The settings on record: FaSSIF pH 6.5, 37° C., 50 rpm, about 10 mg in 100 mL. Type of data set: physicochemical. Here is the method:
The dissolution test was carried out by the paddle method using FaSSIF (an aqueous solution containing 3 mM sodium taurocholate, 0.75 mM lecithin, 29 mM sodium dihydrogen phosphate and 103 mM potassium chloride and adjusted to pH 6.5 by adding dropwise a sodium hydroxide aqueous solution) as the test solution. About 10 mg of the test compound was added to 100 mL of the test solution. Under the condition at 37° C. and 50 rpm, the test solution was stirred using a paddle. After the start of the stirring, 1 mL of the test solution was collected at each of the time points shown in Table 6 and filtered through a filter. A concentration of the test compound in the filtrate was measured by high-performance liquid chromatography (HPLC conditions were the same conditions described in Test Example 2).

Where [3] appears, read: aqueous buffer, pH 3, Britton-Robinson buffer.
[4] abbreviates: aqueous buffer, pH 5, Britton-Robinson buffer.
[5] abbreviates: aqueous buffer, pH 7, Britton-Robinson buffer.
The mark [6] stands for this setting: simulated gastric fluid, pH 1, 0.1M hydrochloric acid aqueous solution.

Converted amounts (≈) assume the structure as drawn.

On to `CO[C@H]1CN(C(=O)c2cc3nc(-c4cc(F)c(Cl)c(F)c4)cc(N(C)c4c(C)cccc4F)n3n2)CC[C@H]1CC(=O)O` [Reference Example 4, 2-((3R,4S)-1-(5-(4-chloro-3,5-difluorophenyl)-7-((2-fluoro-6-methylphenyl)(methyl)amino)pyrazolo[1,5-a]pyrimidine-2-carbonyl)-3-methoxypiperidin-4-yl)acetic Acid], for which the solubility at 24 h in data set [1] (setting [3]) was less than 1 µg/mL; in data set [1] (setting [4]) it was less than 1 µg/mL; in data set [1] (setting [5]) it was 13 µg/mL (≈ 21.6 µM); in data set [1] (setting [6]) it was less than 1 µg/mL. For the same molecule, the “Concentration of Test compound” value in data set [2] (10 Min) stood at 4000 ng/mL; in data set [2] (20 Min), 7000 ng/mL; in data set [2] (24 Hours), 18000 ng/mL; in data set [2] (30 Min), 8000 ng/mL; in data set [2] (40 Min), 9000 ng/mL; in data set [2] (60 Min), 10000 ng/mL. The “Concentration of Test compound” value in data set [2] (90 Min) amounted to 11000 ng/mL; in data set [2] (120 Min), 11000 ng/mL; in data set [2] (180 Min), 12000 ng/mL; in data set [2] (240 Min) it was 12000 ng/mL.

As to `CO[C@H]1CN(C(=O)c2cc3nc(-c4cc(F)c(Cl)c(F)c4)cc(N(C)c4c(C)cccc4F)n3n2)CC[C@H]1CC(=O)O.Cl` [Example 1, 2-((3R,4S)-1-(5-(4-chloro-3,5-difluorophenyl)-7-((2-fluoro-6-methylphenyl)(methyl)amino)pyrazolo[1,5-a]pyrimidine-2-carbonyl)-3-methoxypiperidin-4-yl)acetic Acid Hydrochloride], the solubility at 24 h in data set [1] (setting [3]) was less than 1 µg/mL; in data set [1] (setting [4]) it was 1 µg/mL; in data set [1] (setting [5]), more than 1200 µg/mL; in data set [1] (setting [6]), 4 µg/mL. Besides, the “Concentration of Test compound” value in data set [2] (10 Min) stood at 30000 ng/mL; in data set [2] (20 Min) it was 38000 ng/mL; in data set [2] (24 Hours) it was 103000 ng/mL; in data set [2] (30 Min) it was 46000 ng/mL; in data set [2] (40 Min), 51000 ng/mL; in data set [2] (60 Min) it was 61000 ng/mL. Moreover, the “Concentration of Test compound” value in data set [2] (90 Min) turned out to be 72000 ng/mL; in data set [2] (120 Min) it was 78000 ng/mL; in data set [2] (180 Min) it was 85000 ng/mL; in data set [2] (240 Min), 87000 ng/mL.
